Source: patent EP0200794A1, “Derivatives of ubiquinone, process for their preparation and pharmaceutical compositions containing them” (MAGIS FARMACEUTICI S.p.A., priority 1985, dated 1986)

Experiments:
[1] = tested on: rats of Sprague-Dawley stock; experiment: Chronic toxicity; assay type: in vivo; settings: Sprague-Dawley rats of both sexes, oral and intravenous way, 50 mg/kg per day for three months
Method: The chronic toxicity of the new derivatives has been studied by oral and intravenous way in the rats of Sprague-Dawley stock of both sexes, of body weight of about 210 g. The new derivatives, used as drops or in aqueous solution, have been administred to groups of 10 animals (5 males and 5 females). The tests have been carried out in parallel with equivalent amounts of ubiquinone (hydroalcoholic solution). The doses have been of 50 mg/kg per day for three months.

[2] = Light stability in oral preparations; assay type: physicochemical

| Compound | toxic effects (chronic toxicity) [1] | stability under the effect of the light [2] |
| --- | --- | --- |
| COC1=C(OC)C(=O)C(C/C=C(\C)CC/C=C(\C)CC/C=C(\C)CC/C=C(\C)CC/C=C(\C)CC/C=C(\C)CC/C=C(\C)CC/C=C(\C)CC/C=C(\C)CCC=C(C)C)=C(C)C1=O [ubiquinone, Ubiquinone(10)] | No toxic effects | – |
| Ubiquinone bisulphite [Example 1] | – | high stability |
